Reference: article PMC10576769 (Nature Communications, 2023)
Values joined by “and” are separate entries in the source; they are usually repeats but may differ in a detail not shown here. Equal entries are not always repeated. Where two headings read alike, the source gives them in different places. Where a SMILES comes first, the peptide text is derived from it.

Tests used:
LmPC-PLC^C168S = type: biochemical, Listeria monocytogenes; settings: Fig. 4g, as E100
LmPC-PLC^C143S = type: biochemical, Listeria monocytogenes; settings: Fig. 4g, as E100
CpPC-PLC [1] = type: biochemical, Clostridium perfringens
LmPC-PLC^C143S+C168S = type: biochemical, Listeria monocytogenes; settings: Fig. 4g, as E100
BcPC-PLC [2] = type: biochemical, Bacillus cereus
CpPC-PLC [3] = type: biochemical, Clostridium perfringens; remark: listed apart in the source
BcPC-PLC [4] = type: biochemical, Bacillus cereus; remark: listed apart in the source
[5] = type: binding; settings: pH 6.5
LmPC-PLC = LmPC-PLC (Listeria monocytogenes serovar 1/2a, UniProt P33378); assay: biochemical; type: biochemical; settings: for Enzymatic activity towards 4-NPPC (slope): Lm 500 nM, 0 = no slope could be determined; for Enzymatic activity towards 4-NPPC (slope) / Activity of LmPC-PLC towards 4-NPPC (slope): 4-NPPC 1 mM; for Activity of LmPC-PLC towards 4-NPPC (slope): LmPC-PLC 500 nM, 20 mM MES pH 6.5, 150 mM NaCl, 50 μM ZnSO4

Compound: C[C@H](NC(=O)[C@@H](N)CC(N)=O)C(=O)N[C@@H](CS)C(=O)N[C@@H](CS)C(=O)N[C@@H](CC(=O)O)C(=O)N[C@@H](CCC(=O)O)C(=O)O [NE-6] (H-NACCDE-OH; N-terminus and C-terminus assumed)
- relative activity of LmPC-PLC C168S on 4-NPPC (compared to uninhibited activity) (LmPC-PLC^C168S; replicate 1): 0.4893
- relative activity of LmPC-PLC C168S on 4-NPPC (compared to uninhibited activity) (LmPC-PLC^C168S; replicate 2): 0.5344
- relative activity of LmPC-PLC C168S on 4-NPPC (compared to uninhibited activity) (LmPC-PLC^C168S; replicate 3): 0.4659
- relative activity of LmPC-PLC C143S on 4-NPPC (compared to uninhibited activity) (LmPC-PLC^C143S; replicate 1): 0.8443
- relative activity of LmPC-PLC C143S on 4-NPPC (compared to uninhibited activity) (LmPC-PLC^C143S; replicate 2): 0.9328
- relative activity of LmPC-PLC C143S on 4-NPPC (compared to uninhibited activity) (LmPC-PLC^C143S; replicate 3): 0.9098
- relative activity on POPC (compared to uninhibited activity), Cp (CpPC-PLC [1]): 1.136 and 1.059 and 1.144
- relative activity of LmPC-PLC C143S+ C168S on 4-NPPC (compared to uninhibited activity) (LmPC-PLC^C143S+C168S; replicate 1): 1.106
- relative activity of LmPC-PLC C143S+ C168S on 4-NPPC (compared to uninhibited activity) (LmPC-PLC^C143S+C168S; replicate 2): 1.078
- relative activity of LmPC-PLC C143S+ C168S on 4-NPPC (compared to uninhibited activity) (LmPC-PLC^C143S+C168S; replicate 3): 1.062
- relative activity on 4-NPPC (compared to uninhibited activity), Bc (BcPC-PLC [2]): 0.9308 and 0.8774 and 0.8898
- relative activity on 4-NPPC (compared to uninhibited activity), Cp (CpPC-PLC [3]): 0.8963 and 0.9574 and 0.885
- relative activity on POPC (compared to uninhibited activity), Bc (BcPC-PLC [4]): 1.041 and 0.8984 and 0.9777

Compound: c1cnc2c(c1)ccc1cccnc12 [O-phe, O-phenanthroline]
- % of LLO in the pellet fraction [5]: 22.84%
- Enzymatic activity towards 4-NPPC (slope) (LmPC-PLC; O-phe 1 mM + ions (50 μM ZnSO4), replicate 1): 0
- Enzymatic activity towards 4-NPPC (slope) (LmPC-PLC; O-phe 1 mM + ions (50 μM ZnSO4), replicate 2): 0
- Enzymatic activity towards 4-NPPC (slope) (LmPC-PLC; O-phe 1 mM + ions (50 μM ZnSO4), replicate 3): 0
- Enzymatic activity towards 4-NPPC (slope) (LmPC-PLC; O-phe 1 mM, no ions added, replicate 1): 0
- Enzymatic activity towards 4-NPPC (slope) (LmPC-PLC; O-phe 1 mM, no ions added, replicate 2): 0
- Enzymatic activity towards 4-NPPC (slope) (LmPC-PLC; O-phe 1 mM, no ions added, replicate 3): 0
- inhibition of LmPC-PLC activity by O-phe (LmPC-PLC; O-phe 1 mM, 50 μM Zn2+ added to the protein, 30 min preincubation, 4-NPPC, Supplementary Fig. 9c): completely inhibited
- Activity of LmPC-PLC towards 4-NPPC (slope) (LmPC-PLC; inhibitor 4 uM, replicate 1 of N=3): 0.0003865 abs/min
- Activity of LmPC-PLC towards 4-NPPC (slope) (LmPC-PLC; inhibitor 4 uM, replicate 2 of N=3): 0.0003893 abs/min
- Activity of LmPC-PLC towards 4-NPPC (slope) (LmPC-PLC; inhibitor 4 uM, replicate 3 of N=3): 0.0004002 abs/min
- Activity of LmPC-PLC towards 4-NPPC (slope) (LmPC-PLC; inhibitor 8 uM, replicate 1 of N=3): 0.0003883 abs/min
- Activity of LmPC-PLC towards 4-NPPC (slope) (LmPC-PLC; inhibitor 8 uM, replicate 2 of N=3): 0.0003708 abs/min
- Activity of LmPC-PLC towards 4-NPPC (slope) (LmPC-PLC; inhibitor 8 uM, replicate 3 of N=3): 0.0003802 abs/min
- Activity of LmPC-PLC towards 4-NPPC (slope) (LmPC-PLC; inhibitor 16 uM, replicate 1 of N=3): 0.0003736 abs/min
- Activity of LmPC-PLC towards 4-NPPC (slope) (LmPC-PLC; inhibitor 16 uM, replicate 2 of N=3): 0.0003589 abs/min
- Activity of LmPC-PLC towards 4-NPPC (slope) (LmPC-PLC; inhibitor 16 uM, replicate 3 of N=3): 0.0003489 abs/min
- Activity of LmPC-PLC towards 4-NPPC (slope) (LmPC-PLC; inhibitor 31 uM, replicate 1 of N=3): 0.0003148 abs/min
- Activity of LmPC-PLC towards 4-NPPC (slope) (LmPC-PLC; inhibitor 31 uM, replicate 2 of N=3): 0.0003263 abs/min
- Activity of LmPC-PLC towards 4-NPPC (slope) (LmPC-PLC; inhibitor 31 uM, replicate 3 of N=3): 0.0003082 abs/min
- Activity of LmPC-PLC towards 4-NPPC (slope) (LmPC-PLC; inhibitor 63 uM, replicate 1 of N=3, value 0 = no slope could be determined): 0.0002666 abs/min
- Activity of LmPC-PLC towards 4-NPPC (slope) (LmPC-PLC; inhibitor 63 uM, replicate 2 of N=3, value 0 = no slope could be determined): 0.0002954 abs/min
- Activity of LmPC-PLC towards 4-NPPC (slope) (LmPC-PLC; inhibitor 63 uM, replicate 3 of N=3, value 0 = no slope could be determined): 0.000224 abs/min
- Activity of LmPC-PLC towards 4-NPPC (slope) (LmPC-PLC; inhibitor 125 uM, replicate 1 of N=3, value 0 = no slope could be determined): 8.381e-5 abs/min
- Activity of LmPC-PLC towards 4-NPPC (slope) (LmPC-PLC; inhibitor 125 uM, replicate 2 of N=3, value 0 = no slope could be determined): 0.0001203 abs/min
- Activity of LmPC-PLC towards 4-NPPC (slope) (LmPC-PLC; inhibitor 125 uM, replicate 3 of N=3, value 0 = no slope could be determined): 8.369e-5 abs/min
- Enzymatic activity towards 4-NPPC (slope) (BcPC-PLC [2]): 0
- Enzymatic activity towards 4-NPPC (slope) (CpPC-PLC [3]): 0
